Data reported in patent US11123354B2, “Method for the treatment of osteoarthritis” (ABIOGEN PHARMA S.P.A., priority 2016, dated 2021).

Assays:
Sprague Dawley rats = assay: Local tolerability of repeated intra-articular injections; format: in vivo
Experimental: With the aim to determine also the maximum dosages of chlodronate administrable in a single intra-articular injection, the local tolerability of intra-articular injections of sodium chlodronate, after repeated administration in the right knee of male and female Sprague Dawley rats, was investigated in this study.
Groups consisting of 5 male rats and 5 female rats each were subjected to intra-articular administration of aqueous solutions comprising 4, 14 and 40 mg/ml of sodium chlodronate (corresponding to dosages of 0.2, 0.7, and 2 mg/rat).
Each animal received a total of 12 intra-articular injections of chlodronate or placebo, administered as 3 injections per week (on Monday, Wednesday, and Friday) for 4 consecutive weeks. For the high dose group and the control group, the relative control groups with the same numerosity as the main groups were also provided.
During the treatment period, the animals were regularly checked in relation to the increase in body mass, food intake, and general health conditions.
At the end of the study, hematological analyses, chemical-clinical analyses, urino-analysis, and necropsy were performed.

[1] = tested on: COMP (Cartilage Oligomeric Matrix Protein); assay: COMP final serum concentration, MIA-induced OA rats, weekly treatment; format: in vivo, Sprague Dawley rats
Experimental: As an experimental model of OA induction, one involving the intra-articular administration of MIA (monosodium iodoacetate) was used.
The rats were anesthetized by a gaseous mixture of isoflurane and oxygen, and maintained in a supine position. Once the infrapatellar ligament was identified by touch, a single intra-articular injection of monosodium iodoacetate (MIA) was performed in the right knee, after having shaved the skin of the area, while keeping the joint slightly flexed. The amount of MIA injected was equal to 1 mg dissolved in 50 μl of saline solution, having a pH of about 4.5, as measured just before administration. The joint of the left knee was instead injected with 50 μl of saline solution alone, and this represented the internal control.
The treatment involved 4 weekly administrations of sodium chlodronate, followed by one week of follow-up.
The study included 8 treatment groups, each consisting of 10 male Sprague Dawley rats, specifically five treatment groups consisting of OA rats, on which the chlodronate doses of 2, 10, 20, 30, and 40 mg/ml, corresponding to 0.1, 0.5, 1, 1.5, and 2 mg/rat, were tested, and the remaining three groups represented by untreated OA rats, operated but untreated Sham rats, and rats administered only with placebo at pH 4.5.
Considering that the presence of high concentrations of COMP in serum is an indication of the progression of osteoarthritic disease, the measurement of COMP (Cartilage Oligomeric Matrix Protein) final serum concentration is a measure of treatment efficacy.
In fact, COMP seems to play a fundamental role in the formation and structure of articular cartilage, as it has a regulatory function in assembling type II collagen fibers and, together with other matrix proteins, stabilizes the network of collagen fibers. During osteoarthritis, a greater amount of this protein was found in the blood, therefore a higher concentration of COMP in the serum corresponds to a more advanced stage of osteoarthritis degeneration.

[2] = tested on: patients with osteoarthritis of the knee; conditions: 20 patients, IA 0.9 mg on days 1, 3, 7, 10, 14 and 21; cited from earlier work
[3] = 4, 14 and 40 mg/ml, 12 i.a. injections (3 per week, 4 weeks)
[4] = repeated intra-articular administration, rats

O=P([O-])(O)C(Cl)(Cl)P(=O)([O-])O.[Na+].[Na+] [Sodium Chlodronate, sodium chlodronate]
hematological analyses with differential leucocyte count and urinary analyses (Sprague Dawley rats; [3]): no alterations due to the treatment | necropsy examination (Sprague Dawley rats; [3]): No abnormalities | body weight and food consumption (Sprague Dawley rats; 4, 14 and 40 mg/ml, 12 i.a. injections (3 per week, 4 weeks), all animals): normal | mortality, behavioral or clinical changes related to the treatment (Sprague Dawley rats; 4, 14 and 40 mg/ml, 12 i.a. injections (3 per week, 4 weeks), male and female rats): neither mortality nor behavioral or clinical changes | renal effect / electrolyte serum concentration (Sprague Dawley rats; females, highest dose (40 mg/ml, 2 mg/rat), 12 i.a. injections): slight renal suffering with an increase in electrolyte serum concentration | ALP and ALT values in serum (initial hepatic suffering) (Sprague Dawley rats; males, highest dose (40 mg/ml, 2 mg/rat), 12 i.a. injections): significant increase | Maximum Tolerated Dose (MTD) (Sprague Dawley rats; [4]): 40 mg/mL | NOAEL dose (No Observed Adverse Effect Level) (Sprague Dawley rats; [4]): 14 mg/mL | COMP Value ([1]; 2 mg/mL weekly i.a.): 5.46 ng/mL | COMP Value ([1]; 10 mg/mL weekly i.a.): 5.52 ng/mL | COMP Value ([1]; 20 mg/mL weekly i.a.): 5.24 ng/mL | COMP Value ([1]; 30 mg/mL weekly i.a.): 4.9 ng/mL | COMP Value ([1]; 40 mg/mL weekly i.a.): 3.52 ng/mL | effect on pain symptoms (spontaneous pain and pain in movement) [2]: marked positive effect
